According to US8586043B2, “Methods for treating breast cancer with inhibitors of neurotensin activation of NTSR1” (INSERM ( Institut National de la Sante et de la Recherche …, priority 2009, dated 2013):

Tested on: NTS gene
Assay: NTS transcript RT-PCR in HBEC after hormonal treatment
Type: cell-based, human
Details: 1 μM ICI 182780 added concomitantly to 10 nM estradiol, 48 h
Procedure: A) Left, one μg of total RNA from HBEC or whole gland were reverse-transcribed and a PCR experiment specific for NTS was performed. Right, one μg of total RNA from HBEC cells (control, treated with 10 nM estradiol (E2) with or without 1 μM ICI 182780) was reverse-transcribed. A PCR experiment was performed using specific primers for NTS and GAPDH.
The protocols for total RNA extraction, reverse-transcription reaction (RT), and PCR are documented in Souaze et al (Souaze F, Rostene W, Forgez P (1997) J. Biol. Chem. 272:10087-10094). RT was performed on 1 μg of total RNA using a specific NTSR1 primer (5′-[…]-3′ SEQ ID NO:3) or 50 pmol of oligo dT and oligo dN. The PCR amplification was performed on a 1:5 v/v of the RT reaction using 25 pmol of each primer 5′-[…]-3′ SEQ ID NO:4 and 5′-[…]-3′ SEQ ID NO:5 for NTSR1, and 5′-[…]-3′ SEQ ID NO:6 and 5′-[…]-3′ SEQ ID NO:7 for NTS, and 1 unit of Taq polymerase (Applied Biosystems, Courtaboeuf, France). The amplification profile consisted of denaturation at 94° C. for 30 s, annealing at 57° C. for 45 s, and extension at 72° C. for 45 s. The PCR cycle were preceded by denaturation at 95° C. for 15 min and were followed by a final extension at 72° C. for 7 min.
HBEC were synchronized for 40 h in Ham F10 phenol red free medium containing 20 μM lovastatin. Synchronization was stopped by adding 2 mM mevalonate to the hormone-containing medium. […]

C[C@]12CC[C@@H]3c4ccc(O)cc4C[C@@H](CCCCCCCCC[S+]([O-])CCCC(F)(F)C(F)(F)F)[C@H]3[C@@H]1CC[C@@H]2O (stereo partly shown) [ICI 182780]
effect on the estradiol-induced enhancement of NTS transcripts: abolished
